Results: ChEMBL document CHEMBL4813973, “Discovery of novel N-benzylbenzamide derivatives as tubulin polymerization inhibitors with potent antitumor activities” (Eur J Med Chem, 2021)
≈ marks a conversion by molar mass, not a printed value. Calls of active or inactive are those of the source. The rule behind the calls is not given here.

Assays:
[1] = test system: A-431; assay: Induction of cell cycle arrest in human A-431 cells assessed as accumulation at S phase at 7.5 nM after 48 hrs by propidium iodide staining based flow cytometry (reference value: 46.57%); format: functional
[2] = Aqueous solubility of the compound in aqueous HCl at pH 2 by HPLC-UV analysis; format: physicochemical
[3] = test system: H22; assay: Antitumor activity against […] xenografted in ICR mouse assessed as reduction in tumor growth at 20 mg/kg/day, iv for 21 days; format: functional, organism-based; settings: time 21.0 day
[4] = test system: A-431; assay: Anti-microtubule activity in human A-431 cells assessed as loss of cellular structure at 7.5 to 30 nM incubated for 24 hrs by DAPI staining based confocal microscopic analysis; format: functional, cell-based; settings: dose 7.5-30 nM
[5] = Induction of mitochondria membrane potential loss in human A-431 cells assessed as red fluorescence intensity at 30 nM incubated for 48 hrs by JC-1 probe based flow cytometry analysis (reference value: 93.83%); format: functional
[6] = Induction of mitochondria membrane potential loss in human A-431 cells assessed as green fluorescence intensity at 7.5 nM incubated 48 hrs by JC-1 probe based flow cytometry analysis (reference value: 5.98%); format: functional
[7] = test system: A-431; assay: Induction of apoptosis in human A-431 cells assessed as chromatin condensation at 7.5 to 30 nM incubated for 48 hrs by Hoechst33342 staining based fluorescent microscopy; format: functional, cell-based; settings: dose 7.5-30 nM
[8] = Induction of mitochondria membrane potential loss in human A-431 cells assessed as green fluorescence intensity at 15 nM incubated 48 hrs by JC-1 probe based flow cytometry analysis (reference value: 5.98%); format: functional
[9] = Toxicity in ICR mouse xenografted with […] cells assessed as effect on body weight at 20 mg/kg/day, iv for 21 days; format: organism-based; settings: in vivo, 504 h, time 21 day
[10] = Inhibition of pig brain tubulin polymerisation incubated for 30 mins and measured every 2 mins for 60 mins by spectrophotometric method; format: tissue-based, Sus scrofa
[11] = test system: A-431; assay: Induction of apoptosis in human A-431 cells assessed as viable cells at 30 nM after 48 hrs by Annexin-V-APC/PI-staining based flow cytometric analysis (reference value: 93.37%); format: functional; settings: read-out: Activity
[12] = test system: A-431; assay: Induction of apoptosis in human A-431 cells assessed as necrotic cells at 15 nM after 48 hrs by Annexin-V-APC/PI-staining based flow cytometric analysis (reference value: 3.79%); format: functional
[13] = Resistant index, ratio of IC50 for ADR-resistant human Bel-7402 cells to IC50 for human Bel-7402 cells; format: functional
[14] = test system: A-431; assay: Induction of cell cycle arrest in human A-431 cells assessed as accumulation at S phase at 15 nM after 48 hrs by propidium iodide staining based flow cytometry (reference value: 46.57%); format: functional
[15] = n-Octanol/water partition coefficient, logD of the compound incubated for 24 hrs at pH 7.4 by HPLC analysis; format: physicochemical
[16] = test system: K562/VCR; assay: Antiproliferative activity against VCR resistant human K562/VCR cells assessed as reduction in cell viability incubated for 72 hrs by MTT assay; format: functional, cell-based; settings: Homo sapiens, K562/VCR, 72 h; read-out: IC50
[17] = test system: A-431; assay: Induction of cell cycle arrest in human A-431 cells assessed as accumulation at G1 phase at 30 nM after 48 hrs by propidium iodide staining based flow cytometry (reference value: 41.16%); format: functional
[18] = Resistant index, ratio of IC50 for taxol-resistant human HCT-8 cells to IC50 for human HCT-8 cells; format: functional
[19] = test system: HepG2; assay: cells; settings: Homo sapiens, HepG2, 72 h
[20] = Induction of mitochondria membrane potential loss in human A-431 cells assessed as red fluorescence intensity at 15 nM incubated 48 hrs by JC-1 probe based flow cytometry analysis (reference value: 93.83%); format: functional
[21] = test system: A-431; assay: Induction of ROS generation in human A-431 cells at 30 nM incubated for 48 hrs by DCFH-DA dye based fluorescence microscopy (reference value: 6.17%); format: functional
[22] = test system: A-431; assay: Induction of ROS generation in human A-431 cells incubated for 48 hrs by DCFH-DA dye based flow cytometry; settings: dose 7.5-30 nM
[23] = species on record: Sus scrofa; assay: Inhibition of [3H]colchicine binding to biotinylated pig brain tubulin at 5 uM incubated for 2 hrs in presence of GTP by competitive scintillation proximity assay; format: tissue-based
[24] = test system: HCT-8; assay: Antiproliferative activity against human HCT-8 cells assessed as reduction in cell viability incubated for 72 hrs by MTT assay; format: functional, cell-based; settings: Homo sapiens, HCT-8, 72 h; read-out: IC50
[25] = test system: A-431; assay: Induction of apoptosis in human A-431 cells assessed as early apoptotic cells at 15 nM after 48 hrs by Annexin-V-APC/PI-staining based flow cytometric analysis (reference value: 0.82%); format: functional
[26] = Metabolic stability in rat plasma assessed as parent compound remaining at 100 nM measured after 3 hrs by HPLC analysis; format: ADME, cell-free; settings: read-out: Stabilty
[27] = Induction of mitochondria membrane potential loss in human A-431 cells assessed as red fluorescence intensity at 7.5 nM incubated 48 hrs by JC-1 probe based flow cytometry analysis (reference value: 93.83%); format: functional
[28] = test system: H22; assay: Antiproliferative activity against mouse H22 cells assessed as reduction in cell viability incubated for 72 hrs by MTT assay; format: functional, cell-based; settings: H22, 72 h
[29] = test system: A-431; assay: Induction of cell cycle arrest in human A-431 cells assessed as accumulation at G2 phase at 7.5 nM after 48 hrs by propidium iodide staining based flow cytometry (reference value: 7.27%); format: functional
[30] = test system: A-431; assay: Induction of apoptosis in human A-431 cells assessed as necrotic cells at 7.5 nM after 48 hrs by Annexin-V-APC/PI-staining based flow cytometric analysis (reference value: 3.79%); format: functional
[31] = test system: A-431; assay: Induction of cell cycle arrest in human A-431 cells assessed as accumulation at G1 phase at 7.5 nM after 48 hrs by propidium iodide staining based flow cytometry (reference value: 41.16%); format: functional
[32] = test system: L02; assay: Cytotoxicity against human L02 cells assessed as reduction in cell viability incubated for 72 hrs by MTT assay; format: cell-based; settings: L02, 72 h
[33] = species on record: Sus scrofa; assay: Inhibition of [3H]colchicine binding to biotinylated pig brain tubulin at 1 uM incubated for 2 hrs in presence of GTP by competitive scintillation proximity assay; format: tissue-based
[34] = Resistant index, ratio of IC50 for VCR resistant human K562 cells to IC50 for human K562 cells; format: functional

With `COc1ccc(CNC(=O)c2cc(F)ccc2N2CCOCC2)cc1O` the Activity [1] was 40.02%, the solubility [2] was 323 µg/mL (≈ 897 µM) and the Activity [3] was “Active”. For the same compound, the Activity [4] was “Active”, the Activity [5] was 33.88% and the Activity [6] was 26.73%. For the same compound, the Activity [7] was “Active”, the Activity [8] was 45.4% and the Activity [9] was “Non-Toxic”. The IC50 [10] was 3030 nM, the viability at 0.03 µM [11] was 26.5% and the Activity [12] was 9.79%. For the same compound, the “Ratio IC50” value [13] was 3.9, the Activity [14] was 22.59% and the logD at 24 h [15] was 1.61. For the same compound, the IC50 [16] was 205 nM, the Activity [17] was 56.41% and the “Ratio IC50” value [18] was 5.3. For the same compound, the IC50 [19] was 25 nM, the Activity [20] was 54.43% and the Activity [21] was 21.99%. For the same compound, the Activity [22] was “Dose-Dependent Effect”, the inhibition [23] was 82.9% and the IC50 [24] was 20 nM. For the same compound, the Activity [25] was 18.35%, the remaining at 3 h, 0.1 µM [26] was 91.5% and the Activity [27] was 73.18%. For the same compound, the IC50 [28] was 24 nM, the Activity [29] was 13.84% and the Activity [30] was 8.23%. The Activity [31] was 46.14%, the IC50 [32] was 112 nM and the inhibition [33] was 56.9%. The “Ratio IC50” value [34] was 10.8.
